# Experimental data taken from US20160038474A1, “COMPOSITIONS AND METHODS FOR THE MODULATION OF HEMOGLOBIN (S)” (GLOBAL BLOOD THERAPEUTICS, INC., priority 2013, published 2016).
# Read-outs that look alike come from different tables or passages of the source.
# Columns and labels:
# [1] = molecular target: T1, whole blood from homozygous sickle cell patients, Hb(S) (Homo sapiens, UniProt P68871+P69905, E7V); assay: Reverse Hemox assay (oxygen equilibrium curves), whole blood; format: cell-based; conditions: for Whole Blood OEC (delta p50%): [Hb] 1 mM; for p50: whole blood from sickle cell disease patients, control blood p50 30 mm Hg; for Reverse Hemox delta p50% (class) / Reverse Hemox delta p50%: 1 mM compound, whole blood, hematocrit 20%; for Reverse Hemox delta p50%: 1 hour 37° C.
# T1 construct: Oxygen Equilibrium Curves (OEC) of whole blood before and after treatment; from tissue; host or cells: whole blood (or washed red blood cells) of homozygous sickle cell patients
# Experimental: (§1) Oxygen Equilibrium Curves (OEC) of whole blood before and after treatment with different concentrations of compounds 12, 22 and 23 were performed as follows using a HEMOX analyzer (TCS Scientific, New Hope, Pa.). Blood samples from homozygous sickle cell patients were obtained though the Hemoglobinopathy Center at Children's Hospital Oakland Research Institute (CHORI) with Institutional Review Board approval. The hematocrit was adjusted to 20% using autologous plasma and the blood samples were incubated for 1 hour at 37° C. in absence or presence of compounds. 100 μl of these samples were added to 5 mL of Hemox butter (30 mM TES, 130 mM NaCl, 5 mM KCl, pH=7.4) at 37° C. and then transferred to the Hemox sample chamber. The samples were saturated with oxygen by flushing with compressed air for 10 minutes. The samples were then flushed with pure nitrogen and the respective absorbances of oxy- and deoxy-Hb are recorded as a function of the solution pO2. The oxygen equilibrium data were then fitted to the Hill Model to obtain values for p50. The deoxygenation curves for both whole blood alone (control) and whole blood in the presence of the compound were collected with the TCS software.
# Results: Table 3 below lists the delta p50% values where “+” indicates a delta p50% of between 0 and 29, “++” indicates a delta p50% of between 30 and 50, and “+++” indicates a delta p50% of 50 or greater.
# (§2) Reverse hemox assay was performed essentially as described in Example 2, above, using either washed red blood cells or whole blood.
# [2] = molecular target: T2, HbS (Homo sapiens, UniProt P68871+P69905, E7V); assay: 96-well oxygen dissociation assay (ODA); format: biochemical; conditions: for potency at increasing the oxygen affinity of HbS compared with 5-HMF: 96-well ODA; for Hb in ODA (Δoxy state): [Hb] 3 μM, [cmp] 3 μM
# Text: Results: Table 4 below lists the change in oxygen affinity (Δoxy state). After two hours of passive deoxygenation, compound 12, at an equimolar concentration to Hb, increased the Hb oxygen affinity by 6-fold.
# [3] = molecular target: T2, HbS; assay: 96-well oxygen dissociation assay (ODA); format: biochemical; conditions: [Hb] 3 μM; [cmp] 1 μM
# [4] = tested on: washed red blood cells; assay: Reverse Hemox assay (OEC), washed red blood cells; format: cell-based, human
# Experimental: as §1, §2
# Results: Table 4, below, indicates the percent change in p50 (delta p50%) for each compound tested. In the washed red blood cells (RBCs), 5-HMF, compound 5, and compound 12 (1 mM compound) gave p50 of 20, 9 and 7 mm Hg, respectively, compared to the control red blood cells (delta p50=30 mm Hg). To determine the effects of plasma proteins on compound activity. OECs were measured in whole blood from sickle cell disease patients. 5-HMF, compound 5, compound 9, and compound 12 gave p50 of 27, 18, 11 and 6 mm Hg, respectively, compared to the control blood p50 of 30 mm Hg.
# [5] = tested on: sickle cell disease patient whole blood (ssRBCs); assay: Viscosity assay, hypoxic sickle cell blood; format: cell-based, human; conditions: [Hb] 1.5 mM, two hours of hypoxia
# Experimental: Sickle cell disease patients develop anemia as a means for the circulatory system to compensate for increase in blood viscosity caused by the non-deformable sickle cell red blood cells (ssRBCs). The effects of 5-HMF, compound 5, compound 9, or compound 12 were tested on sickle cell disease patient blood rheology to determine if these compounds decrease the viscosity of ssRBCs that have undergone hypoxia. Using blood from patients with sickle cell disease, whole blood (30% hematocrit, ˜1.5 mM Hb) was incubated with 5-HMF, compound 5, compound 9, or compound 12 during exposure to two hours of hypoxia (2.4% 02). A cone-plate viscometer was used to measure the viscosity at shear rates ranging from 60 s^−1 to 415 s^−1.
# [6] = molecular target: T3, HbS/A (Homo sapiens, UniProt P68871+P69905, E7V); assay: R/T assay (relaxed-to-tense transition); format: biochemical; conditions: HbS/A 3 μM
# T3 construct: A mixture of HbS/A was purified from blood obtained from homozygous sickle cell patients; from tissue; host or cells: blood of homozygous sickle cell patients
# Experimental: This ability can be expressed as a “delta R” value (i.e., the change in the time-period of the R state after hemoglobin is treated with a compound, as compared to the period without treatment with the compound). Delta R is the % R to remaining after the compounds treatment compared with no treatment (e.g., if R % without treatment is 8% while with treatment with a target compound is 48% R at 30 μM, then % R is 40% for that compound.
# A mixture of HbS/A was purified from blood obtained from homozygous sickle cell patients though the Hemoglobinopathy Center at Children's Hospital Oakland Research Institute (CHORI) with Institutional Review Board approval. HbS/A (at a final concentration of 3 μM) was incubated for 1 hr at 37° C. in presence or absence of compounds in […] potassium phosphate buffer, pH=7.4 and 30 μM 2,3 diphosphoglycerate (DPG) in 96 well plates in a final volume of 160 μl. Compounds were added at different concentrations (3 μM to 100 μM final concentrations). Plates were covered with a Mylar film. After incubation was completed the Mylar cover was removed and the plates were placed in a Spectrostar Nano plate reader previously heated at 37° C. Five minutes later, N2 (flow rate=20 L/min) was flowed through the spectrophotometer. Spectroscopic measurements (300 nm to 700 nm) were taken every 5 min for 2 hours. Data analysis was performed by using linear regression from the data retrieved for all wavelengths.
# [7] = molecular target: T4, purified HbS (Homo sapiens, UniProt P68871+P69905, E7V); assay: HbS polymerization assay; format: biochemical; conditions: 75 μM compound; 50 μM HbS
# T4 construct: HbS is purified by the CRO VIRUSYS, from blood obtained from homozygous sickle cell patients; tissue VIRUSYS (CRO that did the purification); host or cells: blood of homozygous sickle cell patients
# Experimental: Polymerization assays are carried out in vitro using purified HbS exchanged into 1.8 M potassium phosphate buffer at pH 7.4. Using a slightly modified protocol (Antonini and Brunori, 1971). HbS is purified by the CRO VIRUSYS, from blood obtained from homozygous sickle cell patients through the Hemoglobinopathy Center at Children's Hospital Oakland Research Institute (CHORI) with Institutional Review Board approval. Compounds are prepared in 100% DMSO and a desired amount is added to 50 μM of purified HbS at a final DMSO concentration of 0.3%. Final potassium phosphate concentration is adjusted to 1.8 M using a combination of 2.5 M potassium phosphate stock solution and water at pH 7.4. The reaction mixture is incubated for an hour at 37° C. and then transferred into a 24-well plate for deoxygenation in a glove box containing 99.5% nitrogen and 0.5% oxygen. The 24-well plate is not covered and incubated at 4° C. on a plate cooler inside the glove box for one and a half hours. Fifty μl of the reaction mixture is transferred into a 96-well plate and the absorbance at 700 nm is measured every minute for one hour at 37° C. in a plate reader located inside the glove box. A plot of the absorbance against time is fitted using a Boltzman sigmoidal fit and the delay time (from zero to time at half Vmax) is measured. To compare and rank compounds, delay times are expressed as percent delay (% DT), which is defined as the difference in delay times for HbS/compound and HbS alone multiplied by 100 and divided by the delay time for HbS alone.
# The ability of 5-HMF and compound 12 to delay HbS polymerization was evaluated as described in Example 2, above. Purified HbS (50 μM) was pre-incubated with 25 μM, 50 μM, or 100 μM of 5-HMF or compound 12, then passively de-oxygenated at 4° C. in 1.8 M potassium phosphate. Polymerization was induced via temperature jump from 4° C. to 37° C. Polymerization was quantified based on turbidity of the HbS solution under continued hypoxia.
# [8] = Rat pharmacokinetics and blood/plasma partitioning (Example 1); format: in vivo, Rats (Sprague-Dawley); conditions: for level of compound in blood versus plasma, overall exposure / relative proportion in blood (as compared to plasma) at peak concentration (Cmax): dosed orally; for Vd / bioavailability / clearance / blood plasma ratio: male, Sprague-Dawley; for Vd / bioavailability: in vivo; for Vd / clearance: oral 10 mg/kg or intravenous 1 mg/kg; for Vd: read-out: Vss; for bioavailability: oral 10 mg/kg, intravenous 1 mg/kg; for clearance: plasma; for blood plasma ratio: whole blood and plasma, oral, 10 mg/kg
# Experimental: This experiment was established and used in order to assess the pharmacokinetic (PK) properties of the compounds.
# Sample collection and data analysis: Rats (Sprague-Dawley, male, 8-12[…] weeks old) were dosed with one of three compounds corresponding to compound 12, compound 22 or compound 23. The rats received oral (10 mg/kg) or intravenous (1 mg/kg) doses of the compound. Rats were fasted overnight before the experiments and provided with food after the 2 hour sampling time point.
# Blood samples were collected at different time points. Blood was anti-coagulated by 3.2% TSC (trisodium citrate) and a portion was separated into plasma fraction by centrifugation and removal of blood cells. Plasma and lysed blood samples were anal) zed for drug concentration using LC-MS/MS. PK parameters were calculated by non compartmental analysis of the concentration-time profiles using WinNonLin software (Pharsight, Mountain View, Calif.). Apparent elimination half-life (t1/2) values were calculated as ln(2)/k. Area under the concentration-time curve (AUC) values were estimated using the linear trapezoidal method. AUClast values were calculated from the dosing time to the last measurable concentration. AUCinf values were calculated as the sum of the corresponding AUClast and the ratio of the last detectable concentration divided by k. Plasma clearance (Cl) is calculated from Dose/AUCinf. Volume of distribution at steady state (Vss) is calculated from Mean Residence Timeinf×Clss. Maximum concentration (Cmax) and time to Cmax (Tmax) was recorded as observed. The blood/plasma partitioning ratio was calculated at each experimental time point.
# [9] = read-out: Blood/plasma (Ratio of exposure AUCINF)
# [10] = read-out: Blood/plasma (Ratio of peak concentration)
compound,measurement,setting,value
"COc1cc(C=O)c(OCc2cccnc2-c2[nH]ncc2C)cn1 [Compound 5, 2-methoxy-5-[[2-(4-methyl-1H-pyrazol-5-yl)pyridin-3-yl]methoxy]pyridine-4-carbaldehyde]",Whole Blood OEC (delta p50%),[1]; [cmp] 1 mM,49%
same,Whole Blood OEC (delta p50%),[1]; [cmp] 3 mM,71%
same,p50,[1],18 mm Hg
same,potency at increasing the oxygen affinity of HbS compared with 5-HMF,[2],more potent at increasing the oxygen affinity of HbS than 5-hydroxy furfural
same,Hb in ODA (Δoxy state),[2],10
same,Hb in ODA (Δoxy state),[3],2
same,p50,"[4]; washed RBCs, 1 mM compound, control 30 mm Hg",9 mm Hg
same,Viscosity (ΔcP),[5]; [cmp] 8 mM,>2.4 cP
"COc1cc(C=O)c(OCc2cccnc2-c2ccnn2C(C)C)cn1 [Compound 9, 2-methoxy-5-[[2-(2-propan-2-ylpyrazol-3-yl)pyridin-3-yl]methoxy]pyridine-4-carbaldehyde]",Whole Blood OEC (delta p50%),[1]; [cmp] 1 mM,63%
same,Whole Blood OEC (delta p50%),[1]; [cmp] 3 mM,>80%
same,p50,[1],11 mm Hg
same,potency at increasing the oxygen affinity of HbS compared with 5-HMF,[2],more potent at increasing the oxygen affinity of HbS than 5-hydroxy furfural
same,Hb in ODA (Δoxy state),[2],23
same,Hb in ODA (Δoxy state),[3],6
same,Washed RBC OEC (delta p50%),"[4]; [Hb] 1 mM, [cmp] 1 mM",69%
same,Viscosity (ΔcP),[5]; [cmp] 1.6 mM,2.3 cP
same,Viscosity (ΔcP),[5]; [cmp] 8 mM,>2.4 cP
"COc1cc(C=O)c(OCc2cccnc2-c2ccnn2CC(F)F)cn1 [Compound 22, 5-[[2-[2-(2,2-difluoroethyl)pyrazol-3-yl]pyridin-3-yl]methoxy]-2-methoxypyridine-4-carbaldehyde]",R-T delta R,[6]; 9 μM compound,31.02
same,R-T delta R (class),[6]; 9 μM compound,++ (a delta R of between 30 and 50)
same,R-T delta R,[6]; 10 μM compound,36.25
same,R-T delta R (class),[6]; 10 μM compound,++ (a delta R of between 30 and 50)
same,Polymerization % DT (class),[7],†† (activity >80% but ≦120%)
same,Polymerization % DT (percent delay),[7],90.22%
same,"level of compound in blood versus plasma, overall exposure",[8],5 fold
same,relative proportion in blood (as compared to plasma) at peak concentration (Cmax),[8],5 fold
same,Vd,[8],3.1 L/kg
same,bioavailability,[8],6.6%
same,clearance,[8],9 mL/min/kg
same,blood plasma ratio,[8]; [9],33
same,blood plasma ratio,[8]; [10],5
same,Reverse Hemox delta p50% (class),[1],+++ (a delta p50% of 50 or greater)
same,Reverse Hemox delta p50%,[1],68.69%
"COc1cc(C=O)c(OCc2cccnc2-c2ccccc2C)cn1 [Compound 23, 2-methoxy-5-[[2-(2-methylphenyl)pyridin-3-yl]methoxy] pyridine-4-carbaldehyde]",R-T delta R,[6]; 9 μM compound,37.15
same,R-T delta R (class),[6]; 9 μM compound,++ (a delta R of between 30 and 50)
same,R-T delta R,[6]; 10 μM compound,51.55
same,R-T delta R (class),[6]; 10 μM compound,+++ (a delta R of 50 or greater)
same,Polymerization % DT (class),[7],†† (activity >80% but ≦120%)
same,Polymerization % DT (percent delay),[7],98.19%
same,"level of compound in blood versus plasma, overall exposure",[8],1 fold
same,relative proportion in blood (as compared to plasma) at peak concentration (Cmax),[8],3 fold
same,Vd,[8],3.15 L/kg
same,bioavailability,[8],1.8%
same,clearance,[8],13.7 mL/min/kg
same,blood plasma ratio,[8]; [9],4
same,blood plasma ratio,[8]; [10],1
same,Reverse Hemox delta p50% (class),[1],+++ (a delta p50% of 50 or greater)
same,Reverse Hemox delta p50%,[1],72.45%
